Key:
[1] = target: High affinity nerve growth factor receptor (Homo sapiens, UniProt P04629); assay: Inhibitory Activity of Compounds Against TRKA and TRKA(F589L) Kinases
Experimental: (§1) Kinase Assay Process: 1× Kinase buffer was prepared. […] 10 μL of the 2.5× final concentration kinase solution was added to the compound wells and the positive control wells, and 10 μL of 1× Kinase buffer was added to the negative control wells. The plate was centrifuged at 1000 rpm for 30 seconds, vortexed for mixing, and then incubated at room temperature for 10 minutes. A mixture of 5/3× final concentration of ATP and Kinase Substrate 22 was prepared using 1× Kinase buffer. 15 μL of the mixture of the 5/3× final concentration ATP and the substrate was added to initiate the reaction, the 384-well plate was centrifuged at 1000 rpm for 30 seconds, vortexed for mixing, and incubated at room temperature for the required time. 30 μL of the termination solution was added to stop the kinase reaction, the plate was centrifuged at 1000 rpm for 30 seconds, and vortexed for mixing. The conversion rate was measured using the Caliper EZ Reader.

[2] = target: High affinity nerve growth factor receptor NTRK1 [F589L] (UniProt P04629, F589L); assay: as above
Experimental: as §1

High affinity nerve growth factor receptor, sequence (P04629 whole entry): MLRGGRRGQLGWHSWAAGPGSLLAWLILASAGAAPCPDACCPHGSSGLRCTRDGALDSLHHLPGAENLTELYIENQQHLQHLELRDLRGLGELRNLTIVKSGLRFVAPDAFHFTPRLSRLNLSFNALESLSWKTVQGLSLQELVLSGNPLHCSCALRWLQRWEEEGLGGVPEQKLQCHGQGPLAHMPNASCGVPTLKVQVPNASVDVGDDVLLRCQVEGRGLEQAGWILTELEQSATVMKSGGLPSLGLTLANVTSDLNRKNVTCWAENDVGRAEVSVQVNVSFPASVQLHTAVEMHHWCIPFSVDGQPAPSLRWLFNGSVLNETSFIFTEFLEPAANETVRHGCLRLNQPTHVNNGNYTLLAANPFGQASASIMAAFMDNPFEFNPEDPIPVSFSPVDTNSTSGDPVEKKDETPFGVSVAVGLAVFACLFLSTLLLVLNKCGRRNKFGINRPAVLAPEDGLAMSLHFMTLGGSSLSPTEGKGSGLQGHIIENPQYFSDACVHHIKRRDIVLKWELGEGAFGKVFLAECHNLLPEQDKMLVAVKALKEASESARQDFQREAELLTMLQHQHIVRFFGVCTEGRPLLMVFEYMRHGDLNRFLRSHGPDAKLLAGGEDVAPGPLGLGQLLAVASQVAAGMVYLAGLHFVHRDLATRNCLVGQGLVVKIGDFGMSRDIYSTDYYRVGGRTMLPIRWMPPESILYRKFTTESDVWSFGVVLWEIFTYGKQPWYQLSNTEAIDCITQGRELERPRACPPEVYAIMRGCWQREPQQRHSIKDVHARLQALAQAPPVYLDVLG
High affinity nerve growth factor receptor NTRK1 [F589L], sequence (P04629 33-796 F589L limits assumed): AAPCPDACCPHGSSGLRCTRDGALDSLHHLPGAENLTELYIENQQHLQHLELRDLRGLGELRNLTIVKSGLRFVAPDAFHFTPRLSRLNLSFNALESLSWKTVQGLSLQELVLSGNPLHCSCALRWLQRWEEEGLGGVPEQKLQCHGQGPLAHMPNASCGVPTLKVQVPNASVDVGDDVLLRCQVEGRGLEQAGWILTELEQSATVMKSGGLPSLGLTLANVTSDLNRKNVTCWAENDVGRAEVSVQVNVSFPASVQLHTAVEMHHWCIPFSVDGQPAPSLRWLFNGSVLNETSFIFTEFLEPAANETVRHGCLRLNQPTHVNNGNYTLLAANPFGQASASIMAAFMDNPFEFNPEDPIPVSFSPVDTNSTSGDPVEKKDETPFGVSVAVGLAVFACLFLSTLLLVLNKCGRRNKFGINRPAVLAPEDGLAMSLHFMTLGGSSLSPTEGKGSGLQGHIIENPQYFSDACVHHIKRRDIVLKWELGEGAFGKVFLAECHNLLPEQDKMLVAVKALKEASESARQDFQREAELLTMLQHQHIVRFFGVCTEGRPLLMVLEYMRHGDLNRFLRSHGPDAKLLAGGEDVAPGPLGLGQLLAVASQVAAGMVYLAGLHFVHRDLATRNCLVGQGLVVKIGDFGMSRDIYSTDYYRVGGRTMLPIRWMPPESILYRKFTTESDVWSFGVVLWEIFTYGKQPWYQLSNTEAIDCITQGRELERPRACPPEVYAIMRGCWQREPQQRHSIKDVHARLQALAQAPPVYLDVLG

Compound | IC50 [1] [nM] | IC50 [2] [nM]
Fc1ccc2c(c1)[C@H]1CCCN1c1ccc3ncc(n3n1)-c1cc(cnn1)CO2 [US20260028352, Example I-65] | < 3 | < 5
C[C@H]1Nc2ccc3ncc(n3n2)-c2cc(ncn2)COc2ccc(F)cc21 [US20260028352, Example I-78] | < 3 | < 5
Fc1cnc2c(c1)[C@H]1C[C@H](F)CN1c1ccc3ncc(n3n1)-c1cc(cnn1)CCO2 [US20260028352, Example I-88] | < 3 | –
Fc1cnc2c(c1)[C@H]1CCCN1c1ccc3ncc(n3n1)-c1cc(ccn1)CO2 [US20260028352, Example I-51] | < 3 | –
Fc1ccc2c(c1)[C@H]1CCCN1c1ccc3ncc(n3n1)-c1cc(ccn1)[C@H]1CCC[C@H]1O2 [US20260028352, Example I-45] | < 3 | < 5
Fc1ccc2c(c1)[C@H]1C[C@H](F)CN1c1ccc3ncc(n3n1)-c1cc(ccn1)CO2 [US20260028352, Example I-50] | < 3 | –
C[C@H]1Nc2ccc3ncc(n3n2)-c2cc(cnn2)COc2ccc(F)cc21 [US20260028352, Example I-82] | < 3 | < 5
Fc1ccc2c(c1)C1(CC1)Nc1ccc3ncc(n3n1)-c1cc(ccn1)CO2 [US20260028352, Example I-47] | < 3 | < 5
C[C@H]1Nc2ccc3ncc(n3n2)-c2nccc(n2)CCOc2ncc(F)cc21 [US20260028352, Example I-83] | < 3 | –
C[C@@H]1Cc2ccnc(c2)-c2cnc3ccc(nn23)N[C@H](C)c2cc(F)ccc2O1 [US20260028352, Example I-34] | < 3 | –
Fc1ccc2c(c1)[C@H]1C[C@H](F)CN1c1ccc3ncc(n3n1)-c1cc(ncn1)CO2 [US20260028352, Example I-58] | < 3 | –
Fc1cnc2c(c1)[C@H]1CCCN1c1ccc3ncc(n3n1)-c1cc(ccn1)CCO2 [US20260028352, Example I-55] | < 3 | –
Fc1ccc2c(c1)[C@H]1CCCN1c1ccc3ncc(n3n1)-c1nccc(n1)CCO2 [US20260028352, Example I-92] | < 3 | –
C[C@H]1Nc2ccc3ncc(n3n2)-c2cc(ccn2)CCOc2ccc(F)cc21 [US20260028352, Example I-76] | < 3 | < 5
Fc1cnc2c(c1)[C@H]1C[C@H](F)CN1c1ccc3ncc(n3n1)-c1cc(ncn1)CCO2 [US20260028352, Example I-72] | < 3 | –
C[C@H]1Nc2ccc3ncc(n3n2)-c2cc(ccn2)N2CCC[C@@H](C2)Oc2ccc(F)cc21 [US20260028352, Example I-44] | < 3 | < 5
C[C@H]1Cc2ccnc(n2)-c2cnc3ccc(nn23)N2C[C@@H](F)C[C@@H]2c2cc(F)cnc2O1 [US20260028352, Example I-96] | < 3 | < 5
Fc1ccc2c(c1)[C@H]1C[C@H](F)CN1c1ccc3ncc(n3n1)-c1cc(cnn1)CCO2 [US20260028352, Example I-86] | < 3 | –
C[C@H]1Nc2ccc3ncc(n3n2)-c2cc(ncn2)CCOc2ccccc21 [US20260028352, Example I-32] | < 3 | < 5

Compound | IC50 [1] [nM] | IC50 [2] [nM]
C[C@H]1Nc2ccc3ncc(n3n2)-c2cc(ccn2)N2CCC[C@H](C2)Oc2ccc(F)cc21 [US20260028352, Example I-43] | < 3 | –
C[C@@H]1Cc2cc(ncn2)-c2cnc3ccc(nn23)N[C@H](C)c2cc(F)ccc2O1 [US20260028352, Example I-35] | < 3 | < 5
Fc1ccc2c(c1)[C@H]1CCCN1c1ccc3ncc(n3n1)-c1nccc(n1)CO2 [US20260028352, Example I-61] | < 3 | < 5
Fc1cnc2c(c1)[C@H]1CCCN1c1ccc3ncc(n3n1)-c1cc(cnn1)CO2 [US20260028352, Example I-67] | < 3 | –
Fc1cnc2c(c1)[C@H]1CCCN1c1ccc3ncc(n3n1)-c1nccc(n1)CO2 [US20260028352, Example I-63] | < 3 | –
Fc1cnc2c(c1)[C@H]1C[C@H](F)CN1c1ccc3ncc(n3n1)-c1nccc(n1)CO2 [US20260028352, Example I-64] | < 3 | –
Fc1ccc2c(c1)[C@H]1CCCN1c1ccc3ncc(n3n1)-c1cc(cnn1)CCO2 [US20260028352, Example I-85] | < 3 | < 5
Fc1ccc2c(c1)[C@H]1CCCN1c1ccc3ncc(n3n1)-c1cc(ccn1)CCO2 [US20260028352, Example I-53] | < 3 | –
Fc1ccc2c(c1)[C@H]1C[C@H](F)CN1c1ccc3ncc(n3n1)-c1cc(cnn1)CO2 [US20260028352, Example I-68] | < 3 | –
C[C@@H]1Cc2ccnc(c2)-c2cnc3ccc(nn23)N2CCC[C@@H]2c2cc(F)ccc2O1 [US20260028352, Example I-37] | < 3 | < 5
C[C@H]1Nc2ccc3ncc(n3n2)-c2cc(ccn2)N2CC[C@H](C2)Oc2ccc(F)cc21 [US20260028352, Example I-41] | < 3 | –
Fc1ccc2c(c1)[C@H]1CCCN1c1ccc3ncc(n3n1)-c1cc(ccn1)[C@@H]1CCC[C@H]1O2 [US20260028352, Example I-46] | < 3 | < 5
C[C@H]1Nc2ccc3ncc(n3n2)-c2cc(ncn2)CCOc2ccc(F)cc21 [US20260028352, Example I-74] | < 3 | < 5
Fc1ccc2c(c1)[C@H]1C[C@H](F)CN1c1ccc3ncc(n3n1)-c1cc(ncn1)CCO2 [US20260028352, Example I-70] | < 3 | –
C[C@@H]1Cc2ccnc(c2)-c2cnc3ccc(nn23)N2C[C@@H](F)C[C@@H]2c2cc(F)cnc2O1 [US20260028352, Example I-40] | < 3 | –
Fc1cnc2c(c1)[C@H]1CCCN1c1ccc3ncc(n3n1)-c1cc(ncn1)CCO2 [US20260028352, Example I-71] | < 3 | –
C[C@H]1Nc2ccc3ncc(n3n2)-c2cc(ccn2)N2CC[C@@H](C2)Oc2ccc(F)cc21 [US20260028352, Example I-42] | < 3 | –
Fc1cnc2c(c1)[C@H]1CCCN1c1ccc3ncc(n3n1)-c1cc(ncn1)CO2 [US20260028352, Example I-59] | < 3 | –
Fc1ccc2c(c1)[C@H]1C[C@H](F)CN1c1ccc3ncc(n3n1)-c1cc(ccn1)CCO2 [US20260028352, Example I-56] | < 3 | –

Compound | IC50 [1] [nM] | IC50 [2] [nM]
Fc1ccc2c(c1)[C@H]1CCCN1c1ccc3ncc(n3n1)-c1cc(ncn1)CO2 [US20260028352, Example I-69] | < 3 | –
Fc1ccc2c(c1)[C@H]1C[C@H](F)CN1c1ccc3ncc(n3n1)-c1nccc(n1)CCO2 [US20260028352, Example I-93] | < 3 | –
C[C@H]1Nc2ccc3ncc(n3n2)-c2nccc(n2)COc2ccc(F)cc21 [US20260028352, Example I-80] | < 3 | –
C[C@H]1Nc2ccc3ncc(n3n2)-c2nccc(n2)CCOc2ccc(F)cc21 [US20260028352, Example I-84] | < 3 | –
C[C@H]1Nc2ccc3ncc(n3n2)-c2cc(cnn2)COc2ncc(F)cc21 [US20260028352, Example I-79] | < 3 | < 5
C[C@H]1Nc2ccc3ncc(n3n2)-c2nccc(n2)COc2ncc(F)cc21 [US20260028352, Example I-81] | < 3 | < 5
C[C@@H]1Cc2ccnc(c2)-c2cnc3ccc(nn23)N2CCC[C@@H]2c2cc(F)cnc2O1 [US20260028352, Example I-38] | < 3 | –
Fc1cnc2c(c1)[C@H]1C[C@H](F)CN1c1ccc3ncc(n3n1)-c1cc(cnn1)CO2 [US20260028352, Example I-62] | < 3 | < 5
C[C@@H]1Cc2ccnc(c2)-c2cnc3ccc(nn23)N[C@H](C)c2cc(F)cnc2O1 [US20260028352, Example I-36] | < 3 | < 5
C[C@H]1Nc2ccc3ncc(n3n2)-c2cc(ncn2)CCOc2ncc(F)cc21 [US20260028352, Example I-73] | < 3 | < 5
Fc1cnc2c(c1)[C@H]1C[C@H](F)CN1c1ccc3ncc(n3n1)-c1cc(ccn1)CCO2 [US20260028352, Example I-54] | < 3 | –
Fc1cnc2c(c1)[C@H]1C[C@H](F)CN1c1ccc3ncc(n3n1)-c1cc(ncn1)CO2 [US20260028352, Example I-52] | < 3 | < 5
C[C@@H]1Cc2ccnc(c2)-c2cnc3ccc(nn23)N2C[C@@H](F)C[C@@H]2c2cc(F)ccc2O1 [US20260028352, Example I-39] | < 3 | < 5
C[C@H]1Nc2ccc3ncc(n3n2)-c2cc(ccn2)CCOc2ncc(F)cc21 [US20260028352, Example I-75] | < 3 | –
Fc1cnc2c(c1)[C@H]1CCCN1c1ccc3ncc(n3n1)-c1nccc(n1)CCO2 [US20260028352, Example I-94] | < 3 | –
C[C@H]1Nc2ccc3ncc(n3n2)-c2cc(ncn2)COc2ncc(F)cc21 [US20260028352, Example I-77] | < 3 | –
Fc1cnc2c(c1)[C@H]1CCCN1c1ccc3ncc(n3n1)-c1cc(cnn1)CCO2 [US20260028352, Example I-87] | < 3 | < 5
CC1(C)Nc2ccc3ncc(n3n2)-c2cc(ccn2)COc2ccc(F)cc21 [US20260028352, Example I-48] | < 3 | –
Fc1cnc2c(c1)[C@H]1C[C@H](F)CN1c1ccc3ncc(n3n1)-c1cc(ccn1)CO2 [US20260028352, Example I-60] | < 3 | –

— BindingDB's records for patent US20260028352 (Suzhou Langrui Biopharmaceutical, 2026)
